Results on one compound are retold here after patent US20250313530A1, “SMALL MOLECULE INHIBITORS OF INTERLEUKIN-4 AND USES THEREOF” (Trustees of Boston University, priority 2024, published 2025).

Like-named read-outs stand apart in the source and are kept apart here.

One data set addresses IL-13 (Homo sapiens, UniProt P35225). Nature of the data set: HEK-Blue IL-4/IL-13 reporter assay, IL-13 inhibition. Format: cell-based. The following applies: soluble IL-13 mediated signaling, HEK Blue IL-4/IL-13 reporter assay. The protocol: Prior to screening. […] The solution was added to preincubated cells in a 96-well culture plate. The supernatant was then incubated with Quanti-Blue dye for 3 hours and absorbance was measured at 650 nm. Data was analyzed and plotted using GraphPad Prism 9.2.0.
(A reporter such as luciferase makes a cellular process visible.)

Another data set deals with T1, soluble IL-4 (Homo sapiens, UniProt P05112).
T1 sequence (P05112 25-153): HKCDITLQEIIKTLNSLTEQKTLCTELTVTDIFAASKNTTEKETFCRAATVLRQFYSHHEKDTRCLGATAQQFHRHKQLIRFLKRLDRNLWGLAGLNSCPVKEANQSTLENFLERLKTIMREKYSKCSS
Nature of the data set: Differential scanning fluorimetry (thermal shift), IL-4. It counts as binding. Here is the method:
DSF was performed using BioRad CFX384.
A general note: In DSF a fluorescence change marks the thermal transition of the protein.

In data set [1] the test system is IL-4 induced STAT-6 phosphorylation in THP-1 monocytes (type II IL-4 receptor). As to the kind of experiment: THP-1 STAT-6 phosphorylation assay (western blot). Format: cell-based. The protocol:
THP-1 cells were received as a gift from the laboratory of Dr. Mark Grinstaff and maintained in RMPI-1640 with […] heat-inactivated Fetal Bovine Serum and 50 μM beta-mercaptoethanol. Cells used for assays were between passages 6 and 10, 10 ng/mL IL-4 was preincubated with experimental sample (vehicle or analogs) for 30 minutes at 37° C. 1 mL of each solution was then added to a pellet of 2 E6 THP-1 cells and pipetted up and down. THP-1 cells were incubated for 30 minutes in the incubator at 37 C/5% CO2. Cells were then spun down and lysed with 200 μL ice-cold RIPA buffer complete with phosphatase and protease inhibitors. Cell lysates were incubated on ice for 30 minutes, spun down and the supernatants were stored at −20° C. until western blot analysis. Undiluted cell lysates were run on SDS-PAGE and transferred to Immunoblot PVDF membrane using Biorad equipment. Membranes were incubated with 1:1000 primary antibody overnight at 4° C. Membranes were then incubated with 1:50,000 dilution secondary for 1 hour at room temperature. Membranes were then exposed to Femto ECL for 5 minutes and imaged using a Bio-Rad Gel Doc. The brightness/contrast was adjusted in FIJI and the area under the curve of each lane was quantified. The phosphorylated STAT-6 to STAT-6 ratio was calculated and normalized to the amount of total STAT-6. The data was plotted and analyzed using GraphPad Prism 9.2.0′.
On the technique in general: Immunoblotting shows a protein as a band on a membrane.

Data set [2] deals with IL-4 induced STAT-6 phosphorylation in Ramos B lymphocytes (type I IL-4 receptor). As to the kind of experiment: Ramos STAT-6 phosphorylation assay (western blot). Format: cell-based. Here is the method:
Ramos cells were purchased from ATCC and maintained in RMPI-1640 with 10% heat-inactivated Fetal Bovine Serum. Cells used for assays were between passages 4 and 8. […] Undiluted cell lysates were run SDS-PAGE and transferred to Immunoblot PVDF membrane using Biorad equipment. Membranes were incubated with 1:1000 primary antibody overnight at 4° C. Membranes were then incubated with 1:50,000 dilution secondary for 1 hour at room temperature. Membranes were then exposed to Femto ECL for 5 minutes and imaged using a Bio-Rad Gel Doc. The brightness/contrast was adjusted in FIJI and the area under the curve of each lane was quantified. The phosphorylated STAT-6 to STAT-6 ratio was calculated and normalized to the amount of total STAT-6. The data was plotted and analyzed using GraphPad Prism 9.2.0.

In data set [3] the target is T2, IL-4 (Homo sapiens, UniProt P05112).
T2 construct: purchased Acros Biosystems IL4-H4218; host or cells: HEK-293
T2 sequence (P05112 25-153): T1 sequence (P05112 25-153)
Nature of the data set: Surface plasmon resonance binding to IL-4. The protocol: Surface plasmon resonance was performed on a Biacore S200. Series S Sensor chips were purchased from Cytiva. The running buffer was 1×PBS pH 7.40 with 2% DMSO and 0.1% Tween-20 and the flow rate was kept at 50 μL/min. The SA chip was first activated with 120 μL of 1 M NaCl in 50 mM NaOH followed by a wash of 50% Isopropanol in 1 M NaCl and 50 mM NaOH, 200 μl of a 1 mg/ml solution of Avi-tagged IL-4 in DMSO-free buffer was used to immobilize 7073 RU on the chip surface using the BiacoreS200 software, 100 μl of 50 mM Biocytin was used to block all biotin slides on the sensor chip with manual setting. The system was then primed with running buffer for 7 minutes. […] Analog 15 was diluted in the running buffer and injected for 300 seconds cycles, in an ascending order. The dissociation phase was 600 seconds long. Sensorgram figures were created by exporting the raw data and plotting in Graphpad Prism 9.2.0^48.

The test system of another data set is B16-F10 cells. Nature of the data set: In vitro cytotoxicity (CellTiter-Glo). It counts as cell-based. The following applies: up to 25 μM. The protocol:
CellTiter-Glo 2.0 purchased from Promega G9242) was used to measure cell viability with the Victor-3 plate reader (PerkinElmer) after 24 hours in concentrations of compound up to 25 μM. Vehicle was used as a negative control for both cytotoxicity and growth inhibition, methanol was used as a positive control for cytotoxicity, and 1% FBS was used as a positive control for growth inhibition.

Data set [4] can be described thus: Mouse hepatic microsome stability. Format: in vitro ADME. The following applies: mouse hepatic microsomes.
Another data set can be described thus: Mouse plasma stability. Format: in vitro ADME.
The next data set in a line: Human plasma stability. It counts as in vitro ADME.
Data set [5] can be described thus: PAMPA membrane permeability. Format: in vitro ADME. The settings on record: 18 hours incubation. The protocol: PVDF membranes purchased from Bioassay Systems PAMPA-096 were coated with 5 μL of 4% Phosphatidylcholine (Lecithin, MP Biomedicals 0210214780) in dodecane. […] Permeability was calculated by Pv=C×ln (1−ODA/ODE) cm/s, where ODA is the absorbance of acceptor solution minus blank, and ODE the absorbance of the equilibrium standard minus blank, and C=7.72×10^−6 using an 18-hour incubation time.

For data set [6], the target named is T2, IL-4. Nature of the data set: HEK-Blue IL-4/IL-13 reporter assay, IL-4 inhibition. The settings on record: control: cells with 10 μM compound only, no IL-4. It counts as cell-based.
Data set [7] has as its system IL-4 induced pSTAT-6 in THP-1 cells. As to the kind of experiment: THP-1 pSTAT-6 immunofluorescence.
Experimental: IL-4 and analogs or vehicle (DMEM with 2% DMSO) were preincubated for 2 hours at 37° C. After the incubation, IL-4 or IL-4/analogs were incubated with THP-1 cells for 30 min at 37° C./5% CO2. Incubated cells were centrifuged for 5 min at 250×g. After aspirating the supernatant, cells were resuspended in 1×PBS and plated into a MatTek dish coated with Cell Tak adhesive for 30 minutes at room temperature. Cells were fixed with 4% Paraformaldehyde for 1 hour at room temperature. Cells were rinsed twice with 1×PBS and then permeabilized with 0.5% Triton-X for 1 hour at room temperature. Cells were rinsed again with 1×PBS, and blocked for an hour in superblock with 0.05% Tween-20, rinsed twice, and then incubated with anti-pSTAT-6 1:100 diluted in superblock 0.05% Tween-20 overnight at 4° C. (parafilmed to avoid evaporation). Cells were rinsed thrice with 1×PBS and then incubated with Mouse anti-rabbit IgG(H+L) Secondary Antibody-Alexa Fluor 647 for 1 hour at room temperature in the dark. […] Cells were rinsed twice with 1×PBS and left in 1 ml of 1×PBS. Confocal Imaging was done using an Olympus FV10i and images were processed using FIJI.

Chain of IL-13 (P35225 25-146): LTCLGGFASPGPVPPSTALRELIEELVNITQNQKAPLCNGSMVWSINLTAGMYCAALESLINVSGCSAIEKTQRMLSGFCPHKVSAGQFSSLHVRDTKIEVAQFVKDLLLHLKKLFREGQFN

In the case of `N#Cc1c(-c2ccc(O)c(O)c2)cc(-c2ccccc2)[nH]c1=N` [Compound 15, 4-(3,4-dihydroxyphenyl)-2-imino-6-phenyl-1,2-dihydropyridine-3-carbonitrile], the EC50 (commonly the midpoint of the concentration-response curve) at IL-13 came to 4490 nM; in data set [1] (Homo sapiens, THP-1 monocytes, western blot, normalized to STAT-6, read-out: EC50 of inhibition of STAT-6 phosphorylation) it was 49.6 nM. Besides, the ΔTm at 2 µM was greater than 1 °C at soluble IL-4 (IL-4 shift minus IL-2 shift, 2 μM, read-out: thermal shift for IL-4 stronger than for IL-2 by) and 1.75 °C on soluble IL-4 (soluble IL-4, 2 μM compound, 0.1% DMSO, read-out: Tm shift). For the same compound, the STAT-6 levels entry in data set [1] (total STAT-6, THP-1 cells) was “not impacted”. In addition, the inhibition (in general, the share of the control response that was lost under treatment) at 0.5 µM in data set [2] (Homo sapiens, Ramos, read-out: percent inhibition of STAT-6 phosphorylation) amounted to 61.9%. Further, in [2] (Ramos B lymphocytes, 50 nM), the “inhibition of phosphorylation of STAT-6” value is on record as “minimum inhibition”. Besides, the kd at IL-4 [3] (SPR kinetic binding constant) is recorded as 8.34 e−04 s^−1. Besides, binding on IL-4 [3] (SPR steady-state affinity analysis) was put at a Kd of 31.9 nM. The kon on IL-4 [3] (pH 7.4, read-out: ka) was 26200 M⁻¹ s⁻¹. Further, the “Cytotoxicity in B16-F10 cells (24 hours)” value with B16-F10 cells was “no toxicity”; in the data set with B16-F10 cells (listed as Analog 15), “n.s. < 25 μM”. For the same compound, the “Mouse hepatic microsome stability (% remaining after 1 hour)” value in data set [4] is reported as 30.3%. Moreover, the “Mouse plasma stability (% remaining after 3 hours)” value in “Mouse plasma stability” came to 94.3%. Further, the “Human plasma stability (% remaining after 3 hours)” value in “Human plasma stability” came out at 97.4%. Besides, the apparent permeability coefficient (Papp) (in general, a coefficient for how fast a substance crosses the barrier) at 18 h, 100 μM in data set [5] is 12.7 ×10⁻⁶ cm/s. The Abs650 at IL-4 [6] stood at 0.06345 ± 0.001036. Also, the “STAT-6 phosphorylation by immunofluorescence” value in data set [7] (50 nM) is reported as “reduced STAT-6 phosphorylation”; in data set [7] (500 nM), “complete inhibition of phosphorylation”.
